Experimental data as given in patent US10154992B2, “Compounds and methods for treating HIV infection” (THE REGENTS OF THE UNIVERSITY OF CALIFORNIA, priority 2016, dated 2018).
Read-outs that look alike come from different tables or passages of the source.

Columns and labels:
Type in all cases: cell-based
[1] = MTT cell viability run in parallel with the Tat-hybrid assay; conditions: human, Tat-hybrid reporter cell lines (HeLa); for CC50 at 48 h: Table 5, read-out: Tat hybrid TC50; for EC50 at 48 h: Table 6, second 'EC50' entry of the cell, values D/E
Method: (§1) Cells were counted and plated into white 384-well or 96-well cell-culture treated assay plates and compounds were added. After 48 hours, the cells were prepared for luminescence assays that were performed on a plate reader (Tecan Evolution or MD Analyst). The cytotoxicity of each compound was determined in parallel via MTT-based cell viability assays.
as §1, with “Tat hybrid reporter assay. […] Previously characterized thienopyridines and diaminoacridine were used as controls. Cells” for “Cells”, “384-well” for “384-well or 96-well”, “lumincescence” for “luminescence”, “assays. […]” for “assays.”

[2] = system: HIV-1 provirus in U1 cells; assay: U1 activation (latency) assay, p24 ELISA
Method: (§2) U1 activation assay. U1 cells obtained from the AIDS Research and Reference Reagent Program were maintained under standard culture conditions in RPMI 1640 supplemented with 10% fetal bovine serum (heat inactivated), 2 mM L-glutamine, 100U/mL penicillin and 100 μg/mL streptomycin. U1 cells contain an integrated copy of a phorbol ester inducible HIV-1 provirus and addition of phytohemagglutinin (PHA) to the cell culture was used to induce virus production. On the day of the assay, the U1 cells were activated with PHA and 250,000 cells were plated in 96-well plates. Test compounds were diluted in media and applied to the cells at final concentrations from 1 to 10,000 nM. Cultures were incubated for 3 days and supernatants harvested. Cell-free virus production was measured by p24 ELISA on culture supernatant. Compound toxicity was determined by MTT cell-viability assay in parallel assays.

[3] = MTT cell viability in parallel with the U1 assay; conditions: human, U1 cells, read-out: U1 TC50
Method: as §2

[4] = system: Tat-hybrid reporter cell lines (HeLa); assay: MTT cell viability run in parallel with the Tat-hybrid assay; conditions: Table 6; at 50,000 nM
Method: as §1
as §1, with “Tat hybrid reporter assay. […] Previously characterized thienopyridines and diaminoacridine were used as controls. Cells” for “Cells”, “384-well” for “384-well or 96-well”, “lumincescence” for “luminescence”, “assays. […]” for “assays.”

[5] = Human immunodeficiency virus 1, Table 5, read-out: U1 IC50
[6] = Human immunodeficiency virus 1, read-out: U1 cell IC50 (nM)
[7] = Human immunodeficiency virus 1, Table 2, read-out: U1 cell IC50

Row | SMILES | CC50 at 48 h [1] [µM] | IC50 [2, 5] [nM] | CC50 at 3 days ([3]; Table 5) [µM] | also measured
1 | NC(=O)c1sc2cncc(-c3ccc4c(c3)CCO4)c2c1N [drawing 151] | < 40 | < 100 | > 40 | 
2 | NC(=O)c1sc2cncc(-c3ccc4c(c3)OCCO4)c2c1N | < 40 | 100 to 500 | > 40 | 
3 | NC(=O)c1sc2cncc(-c3ccc4c(c3)OCO4)c2c1N [drawing 157] | < 40 | 100 to 500 | > 40 | 
4 | NC(=O)c1cc2c(-c3cc4ccccc4o3)cncc2s1 | > 40 | > 500 | < 40 | 
5 | Cc1noc(C2CCCN(c3cncc4sc(C(N)=O)c(N)c34)C2)n1 (stereo not drawn) [Compound 2k, 3-amino-4-[3-(3-methyl-1,2,4-oxadiazol-5-yl)piperidin-1-yl]thieno[2,3-c]pyridine-2-carboxamide] |  |  |  | IC50 [2, 6]: > 500 nM
6 | CN(C)c1ccc(-c2cncc3sc(C(N)=O)c(N)c23)cc1 | < 40 | < 100 | > 40 | 
7 | N#Cc1ccc(-c2cncc3sc(C(N)=O)cc23)cc1F [drawing 143] | > 40 | 100 to 500 |  | 
8 | NC(=O)c1sc2cncc(N3CCc4ccccc4C3)c2c1N | < 40 | < 100 | < 40 | 
9 | COc1ncc(-c2cncc3sc(C(N)=O)cc23)c(OC)n1 | > 40 | > 500 | > 40 | 
10 | CN(C)C(=O)c1ccc(-c2cncc3sc(C(N)=O)c(N)c23)cc1 | < 40 | 100 to 500 | > 40 | 
11 | COc1cc2c(cc1OC)CN(c1cncc3sc(C(N)=O)c(N)c13)CC2 | < 40 | < 100 | < 40 | 
12 | NC(=O)c1sc2cncc(-c3ccoc3)c2c1N | > 40 | 100 to 500 | < 40 | 
13 | NC(=O)c1sc2cncc(-c3ccc4c(c3)CCO4)c2c1N [Compound 3e, 3-amino-4-(2,3-dihydro-1-benzofuran-5-yl)thieno[2,3-c]pyridine-2-carboxamide] |  |  |  | IC50 [2, 7]: < 100 nM
14 | CNC(=O)c1ccc(-c2cncc3sc(C(N)=O)c(N)c23)cc1 | < 40 | < 100 | > 40 | 
15 | N#Cc1ccc(-c2cncc3sc(C(N)=O)cc23)cc1F [Compound 4c, 4-(4-cyano-3-fluorophenyl)thieno[2,3-c]pyridine-2-carboxamide] |  |  |  | IC50 [2, 7]: 100 to 500 nM
16 | CCOc1ccc(-c2cncc3sc(C(N)=O)cc23)cc1 | < 40 | < 100 | < 40 | 
17 | CN(C)c1ccnc2sc(C(N)=O)c(N)c12 [Compound 1f, 3-amino-4-(dimethylamino)thieno[2,3-b]pyridine-2-carboxamide] |  |  |  | IC50 [2, 6]: > 500 nM
18 | NC(=O)c1sc2cncc(N3CCC(F)(F)CC3)c2c1N [drawing 159] | < 40 | 100 to 500 | > 40 | 
19 | COc1ccccc1-c1cncc2sc(C(N)=O)c(N)c12 | > 40 | 100 to 500 | > 40 | 

Row | SMILES | CC50 at 48 h [1] [µM] | IC50 [2, 5] [nM] | CC50 at 3 days ([3]; Table 5) [µM] | also measured
20 | Cc1cc(C)c2c(N)c(C(=O)O)sc2n1 |  |  |  | EC50 at 48 h [1]: > 40 µM; Tat hybrid cell viability at 50,000 nM [4]: X (X = >60%)
21 | NC(=O)c1sc2cncc(N3CCC4(CC3)OCCO4)c2c1N [Compound 2g, 3-amino-4-{1,4-dioxa-8-azaspiro[4.5]decan-8-yl}thieno[2,3-c]pyridine-2-carboxamide] |  |  |  | IC50 [2, 6]: 100 to 500 nM
22 | NC(=O)c1cc2c(-c3cccc(-c4ccccc4)c3)cncc2s1 [drawing 145] | > 40 | 100 to 500 | < 40 | 
23 | NC(=O)c1sc2cncc(-c3ccc4cc[nH]c4c3)c2c1N | > 40 | 100 to 500 | > 40 | 
24 | NC(=O)c1cc2c(-c3ccccc3OC(F)(F)F)cncc2s1 | > 40 | > 500 | < 40 | 
25 | NC(=O)c1sc2cncc(N3CCCC3)c2c1N |  | 100 to 500 | > 40 | 
26 | NC(=O)c1sc2cncc(N3CCN(C=O)CC3)c2c1N | < 40 | > 500 | > 40 | 
27 | Cc1nc2sc(C(N)=O)c(N)c2c(C)c1C |  |  |  | EC50 at 48 h [1]: > 40 µM; Tat hybrid cell viability at 50,000 nM [4]: X (X = >60%)
28 | NC(=O)c1sc2ncccc2c1N |  |  |  | EC50 at 48 h [1]: > 40 µM; Tat hybrid cell viability at 50,000 nM [4]: Y (Y = 30-60%)
29 | CC(C)c1ccc2nc3sc(C(N)=O)c(N)c3cc2c1 |  |  |  | EC50 at 48 h [1]: < 40 µM; Tat hybrid cell viability at 50,000 nM [4]: X (X = >60%)
30 | NC(=O)c1cc2c(-c3cccc(-c4ccccc4)c3)cncc2s1 [Compound 4j, 4-(3-phenylphenyl)thieno[2,3-c]pyridine-2-carboxamide] |  |  |  | IC50 [2, 7]: 100 to 500 nM
31 | NC(=O)c1sc2cncc(N3CCC(C(N)=O)CC3)c2c1N [drawing 158] | < 40 | 100 to 500 | > 40 | 
32 | NC(=O)c1sc2nccc(N3CCc4ccccc4C3)c2c1N [Compound 2i, 3-amino-4-(1,2,3,4-tetrahydroisoquinolin-2-yl)thieno[2,3-b]pyridine-2-carboxamide] |  |  |  | IC50 [2, 6]: < 100 nM
33 | CN(C)c1cccc(-c2cncc3sc(C(N)=O)c(N)c23)c1 | < 40 | 100 to 500 | > 40 | 
34 | CN(C)c1ccnc2sc(C(N)=O)c(N)c12 [drawing 152] | > 40 | > 500 | > 40 | 
35 | Cc1cc(C(F)F)nc2sc(C(N)=O)c(N)c12 |  |  |  | EC50 at 48 h [1]: > 40 µM; Tat hybrid cell viability at 50,000 nM [4]: X (X = >60%)
36 | NC(=O)c1cc2c(N3CCOCC3)cncc2s1 | > 40 | 100 to 500 | < 40 | 
37 | CCOc1ncccc1-c1cncc2sc(C(N)=O)c(N)c12 | > 40 | 100 to 500 | > 40 | 
38 | N#Cc1ccccc1-c1cncc2sc(C(N)=O)cc12 [Compound 4d, 4-(2-cyanophenyl)thieno[2,3-c]pyridine-2-carboxamide] |  |  |  | IC50 [2, 7]: > 500 nM

Row | SMILES | CC50 at 48 h [1] [µM] | IC50 [2, 5] [nM] | CC50 at 3 days ([3]; Table 5) [µM] | also measured
39 | NC(=O)c1sc2cncc(-c3cccc4ccccc34)c2c1N | > 40 | < 100 | < 40 | 
40 | Cc1noc(C2CCCN(c3cncc4sc(C(N)=O)c(N)c34)C2)n1 (stereo not drawn) [drawing 169] | < 40 | > 500 | > 40 | 
41 | NC(=O)c1sc2cncc(N3CCC(Oc4ccccc4)CC3)c2c1N [drawing 139] | > 40 | < 100 | < 40 | 
42 | CN(C)c1cncc2sc(C(N)=O)c(N)c12 | < 40 | 100 to 500 | > 40 | 
43 | Cc1ccnc2sc(C(N)=O)c(N)c12 |  |  |  | EC50 at 48 h [1]: < 40 µM; Tat hybrid cell viability at 50,000 nM [4]: X (X = >60%)
44 | NC(=O)c1sc2cncc(-c3ccc4c(c3)OCO4)c2c1N [Compound 3f, 3-amino-4-(2H-1,3-benzodioxol-5-yl)thieno[2,3-c]pyridine-2-carboxamide] |  |  |  | IC50 [2, 7]: 100 to 500 nM
45 | COc1ccc(-c2cncc3sc(C(N)=O)c(N)c23)cc1 [Compound 3a, 3-amino-4-(4-methoxyphenyl)thieno[2,3-c]pyridine-2-carboxamide] |  |  |  | IC50 [2, 7]: < 100 nM
46 | COc1ccc(-c2cc(C3CC3)nc3sc(C(N)=O)c(N)c23)cc1 |  |  |  | EC50 at 48 h [1]: > 40 µM; Tat hybrid cell viability at 50,000 nM [4]: X (X = >60%)
47 | CN(C)C(=O)c1sc2ncccc2c1N |  |  |  | EC50 at 48 h [1]: < 40 µM; Tat hybrid cell viability at 50,000 nM [4]: X (X = >60%)
48 | Cc1ccc(-c2c3c(nc4sc(C(N)=O)c(N)c24)CCC3)cc1 |  |  |  | Tat hybrid cell viability at 50,000 nM [4]: X (X = >60%); IC50 ([2]; Human immunodeficiency virus 1, Table 6, read-out: U1 IC50): > 500 nM; CC50 at 3 days ([3]; Table 6): < 40 µM
49 | NC(=O)c1sc2cncc(N3CCC(F)(F)CC3)c2c1N [Compound 2h, 3-amino-4-(4,4-difluoropiperidin-1-yl)thieno[2,3-c]pyridine-2-carboxamide] |  |  |  | IC50 [2, 6]: 100 to 500 nM
50 | NC(=O)c1sc2nc(-c3cccnc3)ccc2c1N |  |  |  | EC50 at 48 h [1]: < 40 µM; Tat hybrid cell viability at 50,000 nM [4]: X (X = >60%)
51 | CC(=O)c1sc2nc(C)cc(C)c2c1N |  |  |  | EC50 at 48 h [1]: > 40 µM; Tat hybrid cell viability at 50,000 nM [4]: Y (Y = 30-60%)
52 | NC(=O)c1sc2cncc(N3CCC(Oc4ccccc4)CC3)c2c1N [Compound 2j, 3-amino-4-(4-phenoxypiperidin-1-yl)thieno[2,3-c]pyridine-2-carboxamide] |  |  |  | IC50 [2, 6]: < 100 nM
53 | NC(=O)c1cc2c(-c3ccc4c(c3)OCO4)cncc2s1 [Compound 4f, 4-(2H-1,3-benzodioxol-5-yl)thieno[2,3-c]pyridine-2-carboxamide] |  |  |  | IC50 [2, 7]: < 100 nM
54 | NC(=O)c1sc2cncc(-c3ccccc3)c2c1N |  | 100 to 500 | > 40 | 
55 | NC(=O)c1cc2c(-c3ccc(Oc4ccccc4)cc3)cncc2s1 | < 40 | 100 to 500 |  | 
56 | NC(=O)c1sc2cncc(N3CCC(C(N)=O)CC3)c2c1N [Compound 2c, 1-{3-amino-2-carbamoylthieno[2,3-c]pyridin-4-yl}piperidine-4-carboxamide] |  |  |  | IC50 [2, 6]: 100 to 500 nM
